In article PMC11874007, “Switching Roles—Exploring Concentration-Dependent Agonistic versus Antagonistic Behavior of Integrin Ligands” (Journal of Medicinal Chemistry, 2025):

Columns and labels:
M21 cells = experiment: Cell adhesion in the presence of ligand, M21 cells; assay type: cell-based; settings: 1 μM
Protocol: (§1) Figure 10 (A) Effect of integrin ligands on cancer cell migration. […] Microscopical measurements of wound gaps were taken directly after setting the wound scratch and then after 9, 24, 48, and 72 h, respectively. Wound scratch assays were repeated at least three times. The extent of wound gap closure [%]/cell coverage was calculated by a python script utilizing Canny’s Edge Detection algorithm as described under Materials and summarized in the corresponding histograms (see also Scheme S5 in the Supporting Information). (B) Adhesion of M21, OV-MZ-6, and HN cells in the presence of the respective integrin targeting ligand at low (1 nM) and high (1 μM) concentrations. […] Depicted are typical microscopical images of the respective cell monolayers.

OV-MZ-6 cells = experiment: Cell adhesion in the presence of ligand, OV-MZ-6 cells; assay type: cell-based; settings: 1 μM, 48 h
Protocol: as §1

HN cells (αvβ6+) = experiment: Time-dependent cellular uptake of Cy5.5-labeled ligands, HN cells; assay type: cell-based; settings: Cy5.5-labeled ligands, 1 μM
From the text: For intracellular drug delivery, integrin ligands designed as drug-conjugated vehicles have to be easily and selectively internalized by tumor cells (over)expressing the respective targeted integrin subtype. […] It should be noted here that HN, OV-MZ-6, and RKO cells also express low αvβ3 expression levels.
Figure 7 Cellular uptake of Cy5.5-labeled integrin ligands. […] Nuclei were costained with Hoechst 33342 (blue signal) and cell membranes with CellMask Green (green signal). Merge of stains (yellow signal) indicated colocalization of ligands at the cell membrane. Scale bar: 50 μm.
Microchamber cell culture slides were coated with fibronectin (2 μg/mL), followed by cell seeding at a density of 50,000 cells/well. After 24 h of cultivation, cells were treated with integrin ligands L1-Cy5.5 to L5-Cy5.5 (1 μM in 0.01% (w/v) CaCl2 and 0.1% (w/v) BSA in PBS; 250 μL/well) for 3, 30, 60, or 300 min at 37 °C. The cells were washed in PBS/0.01% (w/v) CaCl2 (6 × 800 μL) and the fluorescence signal intensity recorded using the LSM 700 microscope (Zeiss, Jena, Germany). CellMask Green Plasma Membrane Stain was used to stain the cell membrane; nuclei were stained with Hoechst 33342.

human αvβ6-integrin = target: T1, human αvβ6-integrin (Homo sapiens, UniProt P06756+P18564); settings: previously published values; cited from earlier work
T1 construct: purchased R&D 3817-AV-050
T1 sequence (P06756 31-992 limits assumed): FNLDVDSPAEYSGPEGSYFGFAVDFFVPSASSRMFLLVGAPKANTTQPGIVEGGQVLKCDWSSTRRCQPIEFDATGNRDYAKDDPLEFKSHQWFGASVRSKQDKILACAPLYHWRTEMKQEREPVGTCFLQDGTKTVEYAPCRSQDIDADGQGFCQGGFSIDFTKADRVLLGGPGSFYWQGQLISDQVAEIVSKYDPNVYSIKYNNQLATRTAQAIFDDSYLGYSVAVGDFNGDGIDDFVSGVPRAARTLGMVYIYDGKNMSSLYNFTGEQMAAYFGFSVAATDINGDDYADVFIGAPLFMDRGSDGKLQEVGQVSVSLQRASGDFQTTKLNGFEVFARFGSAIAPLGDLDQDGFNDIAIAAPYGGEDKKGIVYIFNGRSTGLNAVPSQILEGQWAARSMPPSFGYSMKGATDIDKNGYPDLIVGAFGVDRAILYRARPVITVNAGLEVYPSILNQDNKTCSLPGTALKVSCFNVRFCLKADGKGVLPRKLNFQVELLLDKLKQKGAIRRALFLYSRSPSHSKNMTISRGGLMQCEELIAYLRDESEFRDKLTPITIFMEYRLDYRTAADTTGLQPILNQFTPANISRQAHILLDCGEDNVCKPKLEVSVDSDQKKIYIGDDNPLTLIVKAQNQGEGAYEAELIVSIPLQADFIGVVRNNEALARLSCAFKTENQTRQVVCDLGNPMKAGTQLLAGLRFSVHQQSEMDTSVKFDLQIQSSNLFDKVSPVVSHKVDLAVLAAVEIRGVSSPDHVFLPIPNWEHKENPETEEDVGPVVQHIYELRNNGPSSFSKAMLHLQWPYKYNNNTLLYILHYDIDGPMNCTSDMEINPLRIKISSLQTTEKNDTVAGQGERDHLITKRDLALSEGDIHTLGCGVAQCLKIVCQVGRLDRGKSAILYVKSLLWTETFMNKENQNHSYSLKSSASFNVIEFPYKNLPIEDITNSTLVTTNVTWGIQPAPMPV
T1 sequence (P18564 22-707 limits assumed): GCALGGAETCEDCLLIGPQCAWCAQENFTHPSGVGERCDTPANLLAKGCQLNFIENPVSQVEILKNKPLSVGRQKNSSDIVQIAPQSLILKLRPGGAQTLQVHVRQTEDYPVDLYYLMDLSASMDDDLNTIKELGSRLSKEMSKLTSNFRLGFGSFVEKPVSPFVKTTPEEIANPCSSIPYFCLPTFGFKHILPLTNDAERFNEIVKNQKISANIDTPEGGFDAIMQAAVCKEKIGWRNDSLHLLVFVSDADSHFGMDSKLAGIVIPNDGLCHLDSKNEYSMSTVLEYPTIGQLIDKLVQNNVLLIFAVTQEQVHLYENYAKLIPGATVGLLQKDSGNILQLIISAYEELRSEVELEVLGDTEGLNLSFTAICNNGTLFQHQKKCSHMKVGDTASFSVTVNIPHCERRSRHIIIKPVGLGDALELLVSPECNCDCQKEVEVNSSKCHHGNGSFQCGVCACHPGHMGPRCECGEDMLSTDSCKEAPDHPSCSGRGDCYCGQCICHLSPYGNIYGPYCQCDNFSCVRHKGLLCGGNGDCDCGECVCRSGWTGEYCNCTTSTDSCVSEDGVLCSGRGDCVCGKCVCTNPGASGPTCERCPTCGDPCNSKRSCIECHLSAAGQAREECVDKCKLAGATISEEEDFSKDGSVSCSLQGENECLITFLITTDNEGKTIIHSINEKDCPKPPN

C#CCCC(=O)NCCCOc1ccc(C(=O)N[C@H](CC(=O)O)Cc2ccc(OCCCNc3cc(OC)ccn3)cc2)cc1 [L1, (S)-4-(4-(3-((4-Methoxypyridin-2-yl)amino)propoxy)phenyl)-3-(4-(3-(pent-4-ynamido)propoxy)benzamido)butanoic Acid]
Effect on cell adhesion / attachment (M21 cells): performed as inhibitors of cell attachment

C#CCCC(=O)NCCCOc1cc(C)c(C(=O)N[C@@H](CNC(=O)CNC(=O)c2cccc(NC(=N)N)c2)C(=O)O)c(C)c1 [L5, (S)-2-(2,6-Dimethyl-4-(3-(pent-4-ynamido)propoxy)benzamido)-3-(2-(3-guanidinobenzamido)acetamido)propanoic Acid]
Effect on cell adhesion / attachment (OV-MZ-6 cells): performed as inhibitors of cell attachment

c(FRGDLAFp(NMe)K) [L3]
Cellular uptake, comparison of αvβ6 ligands (HN cells (αvβ6+)): better cellular uptake than L4 | IC50 (human αvβ6-integrin): 0.28 ± 0.019 nM
